# Assay results: patent US20260315492A1, “5,6-FUSED BICYCLIC AMIDES AND COMPOSITIONS FOR USE AS 15-PROSTAGLANDIN DEHYDROGENASE MODULATORS” (AMGEN INC., priority 2023, published 2026)
# Molecular target: T1, human recombinant 15-PGDH (Homo sapiens, UniProt P15428)
# T1 sequence (P15428 1-266): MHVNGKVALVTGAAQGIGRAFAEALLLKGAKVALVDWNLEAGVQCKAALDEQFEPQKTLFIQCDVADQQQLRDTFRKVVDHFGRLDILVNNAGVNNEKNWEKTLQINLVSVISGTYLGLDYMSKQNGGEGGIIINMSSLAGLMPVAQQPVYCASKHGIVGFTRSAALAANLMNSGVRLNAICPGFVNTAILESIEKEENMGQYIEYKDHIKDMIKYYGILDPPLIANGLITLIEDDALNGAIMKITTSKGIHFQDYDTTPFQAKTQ
# Experiment: Inhibition of recombinant 15-PGDH enzymatic activity (NADH quantification after addition of PGE2 and NAD+)
# Format: biochemical
# Conditions: recombinant 15-PGDH; 15 min pre-incubation, 60-minute reaction, room temperature, pH 7.5; PGE2 and NAD+; read-out: PGDH-Lumi IC50
# Protocol: The compound dose-response of its inhibition of 15-PGDH activity was determined in human recombinant 15-PGDH enzymatical assays. These assays measured 15-PGDH enzymatic activity by quantifying the amount of NADH produced during a 60-minute reaction initiated by the addition of PGE2 and NAD+. Under the conditions of these experiments, the increase of NADH signal upon oxidation of PGE2 and reduction of NAD+ was linearly proportional to 15-PGDH enzymatic activity. The recombinant human, mouse, rat and dog 15-PGDH enzymatic assays were performed in a 25 μL volume of reaction buffer containing 50 mM Tris, pH 7.5, 0.01% Tween-20 and 100 μM DTT in a 384-well microtiter plate. In concentration-response experiments with tested compounds, 22 concentrations from 2-fold serial dilutions in DMSO were pre-incubated with 15-PGDH for 15 minutes at room temperature. Then, PGE2 and ß-NAD+ were added to initiate the 15-PGDH reaction. After 60 minutes at room temperature, the reaction was quenched and NADH signal was measured using a microtiter plate reader.
# The following data (Table 11-1) provides the IC50 of each compound for inhibiting enzymatic activity of recombinant 15-PGDH in the assay described above.
row,Compound,IC50 [nM]
1,"C[C@H]1COCCN1C(=O)c1nc2ccc(-c3cnc4nn(C)cc4c3)nc2s1 [Compound C52S, ((3S)-3-methyl-4-morpholinyl)(5-(2-methyl-2H-pyrazolo[3,4-b]pyridin-5-yl)[1,3]thiazolo[5,4-b]pyridin-2-yl)methanone]",25.7
2,"CC1CC(F)(F)CCN1C(=O)c1cc2ccc(-c3cnc4nn(C)cc4c3)nc2s1 (single isomer, unassigned) [Compound B27R]",1.51
3,"Cc1c(C(=O)N2CCOCC2)sc2cc(-c3ccc4nn(C)cc4c3)ccc12 [Compound A11, (3-methyl-6-(2-methyl-2H-indazol-5-yl)-1-benzothiophen-2-yl)(4-morpholinyl)methanone]",851
4,"C[C@@H]1COCCN1C(=O)c1cc2ccc(-c3cnc4ncn(C)c4c3)nc2s1 [Compound B63R, (6-(1-methyl-1H-imidazo[4,5-b]pyridin-6-yl)thieno[2,3-b]pyridin-2-yl)((3R)-3-methyl-4-morpholinyl)methanone]",5.17
5,"CO[C@H]1CCN(C(=O)c2sc3cc(-c4cnc5nn(C)cc5c4)ccc3c2C)C1 [Compound A4S, ((3S)-3-methoxy-1-pyrrolidinyl)(3-methyl-6-(2-methyl-2H-pyrazolo[3,4-b]pyridin-5-yl)-1-benzothiophen-2-yl)methanone]",19.5
6,"C[C@H]1COCCN1C(=O)c1cc2ccc(-c3cnc4ncn(C)c4c3)nc2s1 [Compound B63S, (6-(1-methyl-1H-imidazo[4,5-b]pyridin-6-yl)thieno[2,3-b]pyridin-2-yl)((3S)-3-methyl-4-morpholinyl)methanone]",5.68
7,"Cc1c(C(=O)N2CCOCC2)sc2cc(-c3cncnc3)ccc12 [Compound A8, (3-methyl-6-(5-pyrimidinyl)-1-benzothiophen-2-yl)(4-morpholinyl)methanone]",4500
8,"C[C@@H]1COCCN1C(=O)c1nc2ccc(-c3cnc4nn(C)cc4c3)nc2s1 [Compound C52R, ((3R)-3-methyl-4-morpholinyl)(5-(2-methyl-2H-pyrazolo[3,4-b]pyridin-5-yl)[1,3]thiazolo[5,4-b]pyridin-2-yl)methanone]",17
9,"C[C@@H]1COCCN1C(=O)c1cc2ccc(-c3ccc(=O)[nH]c3)nc2s1 [Compound B48R, 5-(2-(((3R)-3-methyl-4-morpholinyl)carbonyl)thieno[2,3-b]pyridin-6-yl)-2(1H)-pyridinone]",1030
10,"C[C@@H]1COCCN1C(=O)c1cc2c(C3CC3)cc(-c3cnc4nn(C)cc4c3)nc2s1 (single isomer, unassigned) [Compound B17R]",3.11
11,"C[C@@H]1COCCN1C(=O)c1cc2ccc(-c3cc(=O)n(C)cn3)nc2s1 [Compound B36R, 3-methyl-6-(2-(((3R)-3-methyl-4-morpholinyl)carbonyl)thieno[2,3-b]pyridin-6-yl)-4(3H)-pyrimidinone]",311
12,"C[C@H]1COCCN1C(=O)c1cc2ccc(-c3cnc4nn(C)cc4c3)nc2s1 [Compound B9S, ((3S)-3-methyl-4-morpholinyl)(6-(2-methyl-2H-pyrazolo[3,4-b]pyridin-5-yl)thieno[2,3-b]pyridin-2-yl)methanone]",5.05
13,"C[C@@H]1COCCN1C(=O)c1cc2ccc(-c3cnc4c(=O)n(C)ccc4c3)nc2s1 [Compound B62R, 7-methyl-3-(2-(((3R)-3-methyl-4-morpholinyl)carbonyl)thieno[2,3-b]pyridin-6-yl)-1,7-naphthyridin-8(7H)-one]",4260
14,Cc1c(C(=O)N2CCOCC2)sc2cc(-c3cnc(NCCO)nc3)ccc12 [Compound A10],1610
15,"Cc1c(C(=O)N2CCOC(C)(C)C2)sc2cc(-c3cnc4nn(C)cc4c3)ccc12 [Compound A6, (2,2-dimethyl-4-morpholinyl)(3-methyl-6-(2-methyl-2H-pyrazolo[3,4-b]pyridin-5-yl)-1-benzothiophen-2-yl)methanone]",185

# The next lines start with the values.
row,IC50 [nM],Compound
1,128,"Cn1cnc(-c2ccc3cc(C(=O)N4CCOCC4)sc3n2)cc1=O [Compound B39, 3-methyl-6-(2-(4-morpholinylcarbonyl)thieno[2,3-b]pyridin-6-yl)-4(3H)-pyrimidinone]"
2,340,"Cn1cc2cc(-c3ccc4cc(C(=O)N5CCOCC56COC6)sc4n3)cnc2n1 [Compound B51, 2,8-dioxa-5-azaspiro[3.5]nonan-5-yl(6-(2-methyl-2H-pyrazolo[3,4-b]pyridin-5-yl)thieno[2,3-b]pyridin-2-yl)methanone]"
3,1.97,"Cn1cc2cc(-c3ccc4cc(C(=O)N5CCOC(C)(C)C5)sc4n3)cnc2n1 [Compound B40, (2,2-dimethyl-4-morpholinyl)(6-(2-methyl-2H-pyrazolo[3,4-b]pyridin-5-yl)thieno[2,3-b]pyridin-2-yl)methanone]"
4,1.7,CC1CC(F)(F)CCN1C(=O)c1cc2ccc(-c3cnc4nn(C)cc4c3)nc2s1 (stereo not shown) [Compound B27]
5,0.394,"Cn1cc2cc(-c3ccc4sc(C(=O)N5CCCCC5)cc4n3)cnc2n1 [Compound C42, (5-(2-methyl-2H-pyrazolo[3,4-b]pyridin-5-yl)thieno[3,2-b]pyridin-2-yl)(1-piperidinyl)methanone]"
6,5.55,"Cn1cc2cc(-c3ccc4cc(C(=O)N5CCOCC5)sc4n3)cnc2n1 [Compound B8, (6-(2-methyl-2H-pyrazolo[3,4-b]pyridin-5-yl)thieno[2,3-b]pyridin-2-yl)(4-morpholinyl)methanone]"
7,16,"Cn1nccc1-c1nc(-c2cnc(=O)[nH]c2)nc2sc(C(=O)N3CCC(F)(F)CC3)cc12 [Compound C38, 5-(6-((4,4-difluoro-1-piperidinyl)carbonyl)-4-(1-methyl-1H-pyrazol-5-yl)thieno[2,3-d]pyrimidin-2-yl)-2(1H)-pyrimidinone]"
8,1.63,"Cn1cc2cc(-c3ccc4sc(C(=O)N5CCCC(F)(F)C5)c(N)c4n3)cnc2n1 [Compound C47, (3-amino-5-(2-methyl-2H-pyrazolo[3,4-b]pyridin-5-yl)thieno[3,2-b]pyridin-2-yl)(3,3-difluoro-1-piperidinyl)methanone]"
9,0.475,"CN(C(=O)c1cc2c(C3CC3)cc(-c3cnc4nn(C)cc4c3)nc2s1)C1CCC1 [Compound B15, N-cyclobutyl-4-cyclopropyl-N-methyl-6-(2-methyl-2H-pyrazolo[3,4-b]pyridin-5-yl)thieno[2,3-b]pyridine-2-carboxamide]"
10,2.38,"Cn1cc2cc(-c3ccc4cc(C(=O)N5CC6CCC(C5)O6)sc4n3)cnc2n1 [Compound B37, (6-(2-methyl-2H-pyrazolo[3,4-b]pyridin-5-yl)thieno[2,3-b]pyridin-2-yl)(8-oxa-3-azabicyclo[3.2.1]octan-3-yl)methanone]"
11,9.51,"Cn1cc2cc(-c3cnc4sc(C(=O)N5CCCCC5)cc4c3)cnc2n1 [Compound B16, (5-(2-methyl-2H-pyrazolo[3,4-b]pyridin-5-yl)thieno[2,3-b]pyridin-2-yl)(1-piperidinyl)methanone]"
12,0.317,"Cn1cc2cc(-c3cc(C4CC4)c4cc(C(=O)N5CCCC(F)(F)C5)sc4n3)cnc2n1 [Compound B11, (4-cyclopropyl-6-(2-methyl-2H-pyrazolo[3,4-b]pyridin-5-yl)thieno[2,3-b]pyridin-2-yl)(3,3-difluoro-1-piperidinyl)methanone]"
13,4.51,"Cn1cc2cc(-c3ccc4sc(C(=O)N5CCOCC5)cc4n3)cnc2n1 [Compound C44, (5-(2-methyl-2H-pyrazolo[3,4-b]pyridin-5-yl)thieno[3,2-b]pyridin-2-yl)(4-morpholinyl)methanone]"
